# Reference: patent publication US8956824B2, “Methods for identifying allosteric modulators of ship polypeptides” (British Columbia Cancer Agency Branch, priority 2006, dated 2015)
# Entries after “also recorded” stand apart in the source; their conditions may differ.
# Tests used:
# LNCaP cells = assay: PKB phosphorylation in LNCaP cells; type: cell-based; conditions: 30 min treatment; cells do not express SHIP1
# Description: The non-hemopoietic, prostate cancer LnCAP cell line was treated with AQX-016A or LY294002 for 30 min and cell lysates analyzed for phospho-PKB-Thr 308 or phospho-PKB 473 as described in the Examples. AQX-016A (Molecular Weight 328.24) concentration is indicated in μM.
# [1] = system: SHIP1+/+ and SHIP1−/− BMMCs; assay: IgE+antigen-induced calcium flux in BMMCs; type: cell-based, mouse; conditions: 30 min pretreatment, DNP-HSA stimulation
# Description: Production of SHIP+/+ and SHIP−/− BMMCs and BMnφs. To obtain BMMCs, bone marrow cells were aspirated from 4 to 8 week old C57B16×129Sv mixed background mice and SHIP1+/+ and SHIP1−/− BMMCs prepared as described previously (17). After 8 weeks in IMDM+15% FCS (StemCell Technologies, Vancouver, Canada)+150 μM MTG+30 ng/ml IL-3 (BMMC medium) more than 99% of the cells were c-kit and FcεR1 positive as determined by flow cytometry with FITC-labeled anti-c-kit (BD Pharmingen, Mississauga, Canada) and FITC-labeled IgE (anti-Epo), respectively. BMmφs from SHIP1+/+ and SHIP1−/− mice were obtained and maintained in IMDM supplemented with 10% FCS, 150 μM MTG, 2% C127 cell conditioned medium as a source of macrophage colony stimulating factor (MCSF) (BMmφ medium).
# Stimulation of BMMCs by FcεR1 crosslinking. SHIP1+/+ and SHIP1−/− BMMCs were pre-loaded overnight in BMMC medium lacking IL-3 with 0.1 μg/ml anti-DNP IgE (SPE-7, Sigma, Oakville, Ont). […] Calcium influx was then monitored by spectrofluorometry as described previously (19). […] Total cell lysates were then prepared and analyzed for phospho-PKB, phospho-p38MAPK, phospho-MAPK, Grb-2 (Cell Signalling, Mississauga, Ont) and SHIP1 (18) by immunoblot analysis as described previously (20). […]
# SHIP2 enzyme = target: T1, SHIP2 enzyme (Homo sapiens, UniProt O15357); assay: In vitro SHIP enzyme assay, SHIP2; type: biochemical; conditions: FIG. 1B
# T1 construct: purchased Echelon Biosciences (Salt Lake City, Utah)
# T1 sequence (O15357 1-1258): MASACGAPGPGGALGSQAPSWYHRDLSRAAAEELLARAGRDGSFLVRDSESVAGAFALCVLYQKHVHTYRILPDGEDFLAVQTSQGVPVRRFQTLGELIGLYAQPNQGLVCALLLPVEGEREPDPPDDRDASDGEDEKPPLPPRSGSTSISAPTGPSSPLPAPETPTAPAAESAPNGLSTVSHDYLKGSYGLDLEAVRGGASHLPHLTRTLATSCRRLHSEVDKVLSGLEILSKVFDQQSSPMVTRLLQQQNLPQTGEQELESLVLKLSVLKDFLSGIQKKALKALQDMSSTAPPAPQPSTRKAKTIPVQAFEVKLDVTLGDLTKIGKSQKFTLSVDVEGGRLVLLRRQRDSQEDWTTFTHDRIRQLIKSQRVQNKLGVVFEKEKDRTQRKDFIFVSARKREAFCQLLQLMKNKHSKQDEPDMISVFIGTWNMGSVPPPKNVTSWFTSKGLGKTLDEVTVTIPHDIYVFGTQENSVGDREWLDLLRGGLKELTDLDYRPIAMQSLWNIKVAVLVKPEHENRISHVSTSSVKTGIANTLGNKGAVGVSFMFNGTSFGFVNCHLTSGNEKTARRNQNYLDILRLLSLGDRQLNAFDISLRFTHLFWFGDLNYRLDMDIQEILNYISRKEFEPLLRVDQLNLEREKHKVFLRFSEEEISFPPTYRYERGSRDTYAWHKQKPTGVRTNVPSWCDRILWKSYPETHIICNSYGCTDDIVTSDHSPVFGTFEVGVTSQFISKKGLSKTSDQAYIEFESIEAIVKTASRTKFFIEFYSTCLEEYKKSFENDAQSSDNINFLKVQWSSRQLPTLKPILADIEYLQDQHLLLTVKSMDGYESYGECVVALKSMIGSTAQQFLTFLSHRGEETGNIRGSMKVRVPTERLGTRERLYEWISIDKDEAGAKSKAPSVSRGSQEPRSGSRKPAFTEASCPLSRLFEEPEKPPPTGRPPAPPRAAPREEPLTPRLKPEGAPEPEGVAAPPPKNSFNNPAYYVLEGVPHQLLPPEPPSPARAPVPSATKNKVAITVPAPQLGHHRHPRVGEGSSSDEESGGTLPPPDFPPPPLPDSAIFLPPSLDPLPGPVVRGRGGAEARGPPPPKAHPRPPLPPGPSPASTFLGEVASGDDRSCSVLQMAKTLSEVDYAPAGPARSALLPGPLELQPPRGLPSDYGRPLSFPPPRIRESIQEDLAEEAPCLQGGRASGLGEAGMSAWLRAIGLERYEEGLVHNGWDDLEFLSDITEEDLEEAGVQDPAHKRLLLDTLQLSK
# Description: In vitro SHIP enzyme assay. The SHIP enzyme assay was performed in 96-well microtitre plates with 10 ng of enzyme/well in a total volume of 25 μL of 20 mM Tris HCl, pH 7.5 and 10 mM MgCl2. SHIP1 enzyme was incubated with test extracts (provided in DMSO) or vehicle for 15 mM at 23° C. before the addition of 100 μM inositol-1,3,4,5-tetrakisphosphate (Echelon Biosciences Inc, Salt Lake City, Utah). The reaction was allowed to proceed for 20 min at 37° C. and the amount of inorganic phosphate released assessed by the addition of Malachite Green reagent followed by an absorbance measurement at 650 nm (15). SHIP2 enzyme was purchased from Echelon Biosciences (Salt Lake City, Utah) and an equivalent amount of inositol phosphatase activity was used in the in vitro enzyme assay. Enzyme data are expressed as the mean of triplicates+/−SEM. Experiments were performed at least 3 times.
compound,measurement,setting,value
Cc1cc(O)c(O)c2c1[C@]1(C)CC[C@H]3C(C)(C)CCC[C@]3(C)[C@H]1C2 [AQX-016A],PKB phosphorylation in LNCaP cells,LNCaP cells,had no effect; also recorded: but not AQX-016A inhibits PKB phosphorylation
same,"IgE+antigen-induced calcium entry, SHIP1+/+ vs SHIP1−/− mast cells",[1],inhibited IgE+antigen-induced calcium entry to a substantially greater degree in SHIP1+/+ than in SHIP1−/−
same,activation of SHIP1 versus SHIP2,SHIP2 enzyme,preferentially activates SHIP1 over SHIP2
